Target: T1, Human HDAC10 (Homo sapiens, UniProt Q969S8)
T1 construct: Amino acids 1-631 with Nterminal GST tag, MW=96 kDa; GST (N); purchased BioMol SE-559; host or cells: Sf9 cells, baculovirus
T1 sequence (Q969S8 1-631): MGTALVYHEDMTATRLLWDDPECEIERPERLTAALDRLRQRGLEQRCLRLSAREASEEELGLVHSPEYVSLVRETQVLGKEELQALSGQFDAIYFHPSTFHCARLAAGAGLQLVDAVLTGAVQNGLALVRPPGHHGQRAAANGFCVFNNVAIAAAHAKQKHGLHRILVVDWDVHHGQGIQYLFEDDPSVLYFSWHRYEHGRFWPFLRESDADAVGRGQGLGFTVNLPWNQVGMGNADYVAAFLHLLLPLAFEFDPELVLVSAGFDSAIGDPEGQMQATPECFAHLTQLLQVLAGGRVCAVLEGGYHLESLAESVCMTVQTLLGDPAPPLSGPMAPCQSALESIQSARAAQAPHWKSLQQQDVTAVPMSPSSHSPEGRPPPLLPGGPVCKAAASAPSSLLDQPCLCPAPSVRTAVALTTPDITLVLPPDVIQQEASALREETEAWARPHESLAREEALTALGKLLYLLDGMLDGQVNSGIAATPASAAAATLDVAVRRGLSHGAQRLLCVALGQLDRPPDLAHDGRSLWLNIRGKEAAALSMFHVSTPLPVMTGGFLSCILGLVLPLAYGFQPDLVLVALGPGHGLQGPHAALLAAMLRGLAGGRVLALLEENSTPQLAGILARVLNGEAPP
Experiment: In vitro HDAC10 inhibition, fluorogenic peptide assay
Format: biochemical
Conditions: for IC50: read-out: IC50 (nM) of enzyme activity HDAC10
Procedure: All HDAC assays were performed using acetylated AMC-labeled peptide substrate: • Substrate for isoforms HDAC1, 2, 3, 4, 5, 6, 7, 9, 10, 11 and HeLa nuclear extract assays: Acetylated fluorogenic peptide from p53 residues 379-382 (RHKKAc) (BioMol. Cat. # KI-104). • Substrate for HDAC8 assays: Acetylated fluorogenic peptide from p53 residues 379-382 (RHKAcKAc) (BioMol. Cat. # KI-178).
Enzymes: • HDAC1 assay: 75 nM Human HDAC1 (GenBank Accession No. NM_004964): Full length with C-terminal GST tag, MW=79.9 kDa, expressed by baculovirus expression system in Sf9 cells (BioMol. Cat. # SE-456). • HDAC2 assay: 5 nM Human HDAC2 (GenBank Accession No. Q92769): Full length with C-terminal His tag, MW=60 kDa, expressed by baculovirus expression system in Sf9 cells (BioMol. Cat. # SE-500). • HDAC3 assay: 2.3 nM Human HDAC3/NcoR2 (GenBank Accession No. NM_003883 for HDAC3, GenBank Accession No.NM_006312 for NcoR2): Complex of human HDAC3, full length with C-terminal His tag, MW=49.7 kDa, and human NCOR2, N-terminal GST tag, MW=39 kDa, co-expressed in baculovirus expression system (BioMol. Cat. # SE-507). • HDAC4 assay: 266 nM Human HDAC4 (GenBank Accession No. NM_006037): Amino acids 627-1085 with N-terminal GST tag, MW=75.2 kDa, expressed in baculovirus expression system (BioMol, Hamburg, Germany). • HDAC5 assay: 588 nM Human HDAC5 (GenBank Accession No. NM_001015053): Full length with Nterminal GST tag, MW=150 kDa, expressed by baculovirus expression system in Sf9 cells (BioMol, Hamburg, Germany). • HDAC6 assay: 13 nM Human HDAC6 (GenBank Accession No. BC069243): Full length with N-terminal GST tag, MW=159 kDa, expressed by baculovirus expression system in Sf9 cells (BioMol. Cat. # SE-508). • HDAC7 assay: 962 nM Human HDAC7 (GenBank Accession No. AY302468): Amino acids 518-end with N-terminal GST tag, MW=78 kDa, expressed in baculovirus expression system (BioMol, Hamburg, Germany). • HDAC8 assay: 119 nM Human HDAC8 (GenBank Accession No. NM018486): Full length, MW=42 kDa, expressed in an E. coli expression system (BioMol. […]
The reactions were carried out in a 96-well microplate for fluorometry in a 50 μl reaction volume. […] The reaction was allowed to develop for 45 minutes at 30° C. with 5% CO2; then the fluorescent signal was measured with an excitation wavelength at 360 nm and an emission wavelength at 460 nm in a microplate-reading fluorometer (GeminiXS; Molecular Devices, Sunnyvale, Calif.). […] IC50 was calculated by fitting the experimental data to a dose-response curve. […]

Row | SMILES | Selectivity against HDAC6 (IC50 HDACx/IC50 HDAC6) HDAC10 (IC50 HDAC10/IC50 HDAC6) | IC50
1 | COc1ccc(-c2cc(-c3ccccc3)[nH]c2C(=O)NCCCCCC(=O)NO)cc1 [Compound A, N-[6-(hydroxyamino)-6-oxohexyl]-3-(4-methoxyphenyl)-5-phenyl-1H-pyrrole-2-carboxamide, reference compound] | 17.3 | 346 nM
2 | O=C(CCCCCNC(=O)c1[nH]c(-c2ccc(O)cc2)cc1-c1ccsc1)NO [Example 6, N-(5-(hydroxycarbamoyl)pentyl)-5-(4-hydroxyphenyl)-3-(3-thienyl)-1H-pyrrole-2-carboxamide] | – | 47 nM
3 | O=C(CCCCCNC(=O)c1[nH]c(-c2ccc(O)cc2)cc1-c1ccoc1)NO [Example 5, 3-(3-furyl)-N-(5-(hydroxycarbamoyl)pentyl)-5-(4-hydroxy-phenyl)-1H-pyrrole-2-carboxamide] | – | 14 nM
